Like-named read-outs stand apart in the source and are kept apart here.
Key:
[1] = MTS cytotoxicity assay in A549 cells; type: cell-based, human; conditions: human, A549 cells (human lung carcinoma)
Experimental: (§1) An MTS assay was performed to determine the cytotoxicity concentration 50% (CC50) of cladoniamide A (CA) in human A549 cells, a cell line from human lung carcinoma. Various concentrations of CA were added to cultured A549 cells and incubated (37° C., 5% CO2) for 48 h. Cell viability was then measured by an MTS assay kit (CellTiter 96™ Aqueous One Solution cell proliferation assay, Promega) according to the manufacturer's instructions. Curve fitting was performed in Igor Pro (WaveMetrics) using a hyperbolic fit algorithm (FIG. 1). The CC50 of CA in A549 cells was determined to be 54±5 μM. An MTS assay was also performed to determine the CC50 of CA in human U87 MG cells, a cell line from human brain. Various concentrations of CA were added to cultured U87 MG cells and incubated (37° C., 5% CO2) for 48 h. Cell viability was then measured by an MTS assay kit (CellTiter 96 Aqueous One Solution cell proliferation assay, Promega) according to the manufacturer's instructions. Curve fitting was performed in Igor Pro (WaveMetrics) using a hyperbolic fit algorithm (FIG. 2).

ZIKV replicon = ZIKV replicon luminescence assay in Huh-7.5 replicon-containing cells; type: cell-based, Zika virus; conditions: Huh-7.5 ZIKV replicon cells, 48 h
Experimental: Error bars represent SD among 3 biological replicates.
Cultured Huh-7.5.1 cells and Huh-7.5 ZIKV replicon-containing cells (Xie 2016) were treated with various concentrations of CA or putative ZIKV replication inhibitor NITD-008 (Deng 2016) for 48 h. Cells were then washed with PBS and ViviRen™ Live Cell Substrate (Promega) was added to a final concentration of 30 μM. Following incubation for 2 min at room temperature, luminescence was measured. Curve fitting was performed in Igor Pro (WaveMetrics) using a sigmoidal fit algorithm (FIG. 5).

V-ATPase = molecular target: T1, V-ATPase (Homo sapiens, UniProt P27449); experiment: Acridine orange vital staining of intracellular organelles of A549 cells (V-ATPase inhibition); type: cell-based; conditions: CA 250 nM, 6 h
T1 construct: endogenous in cells; host or cells: A549 cells (ATCC #CCL-185, or acquired from Synthego)
Experimental: Cultured A549 cells were treated with 1 μM CD, or 250 nM CA or the V-ATPase specific inhibitor bafilomycin A1 (100 nm) for 6 h. After removing the culture medium and washing the cells with Hanks' balanced salt solution (HBSS), a 1:4000 dilution of acridine orange (2% solution, Polysciences Inc.) in HBSS was added to cells and incubated for 10 min. Cells were then washed again with HBSS and analyzed by fluorescence microscopy. In color images, a red color corresponds to the protonated version of the molecule, which permeates acidic organelles and becomes sequestered following protonation. One representative of 3 biological replicates is shown.

ZIKV [2] = experiment: Extracellular ZIKV titer in infected brain organoids; type: cell-based, Zika virus; conditions: 1 μM CA, 72 hours
Experimental: FIG. 18 is a plot showing extracellular ZIKV titer for four brain organoid systems after treatment with 1 μM CA for 72 hours in comparison to untreated controls.
(§2) FIG. 17 is a schematic showing the general method 20 used in Example 6. Referring to FIG. 17, following growth of the brain organoids in STEMdiff™ media 22 (4 organoids/well), the media was aspirated 24. Then, 500 μL ZIKV at the desired MOI in fresh media was added 26 and the brain organoids incubated at 37° C. for 3 hours with gentle shaking 28. The brain organoids were then washed with 2×1 mL PBS 30, and fresh media and CA or cladoniamide C (CC) added to the desired concentration 32 prior to incubation for the desired time at 37° C. 34. The supernatant was collected and frozen at −86° C. 36 prior to analysis and the brain organoids transferred to an Eppendorf with paraformaldehyde for electron microscopy 38.
(§3) FIG. 18 is a plot showing the anti-ZIKV activity of cladoniamide A (incubation with 1 μM CA for 72 hours; 2 biological replicates, each with 4 organoids/well) using four brain organoid systems. There was a greater than 4-log reduction in extracellular ZIKV titer when treated with CA. […] FIGS. 20 and 21 show plots showing the anti-ZIKV activity of CA and CC (incubation with 10 μM CA or CC for 69 hours, MOI 1; 4 technical replicates as there were 4 organoids/[…]).

[3] = MTS cytotoxicity assay in U87 MG cells; type: cell-based; conditions: human, U87 MG cells (human brain)
Experimental: as §1

ZIKV [4] = experiment: NS1 and dsRNA in ZIKV-infected brain organoids; type: cell-based, Zika virus; conditions: 10 μM, 69 hours, MOI 1
Experimental: as §2, §3

DENV-4 = DENV-4 intracellular dsRNA (Cellomics) in A549 cells; type: cell-based, dengue virus
Experimental: Error bars represent SD among 3 biological replicates. Cultured A549 cells were treated with the indicated concentrations of CA (1=Mock, 2=0 M, 3=1 μM, 4=5 M, 5=10 M, 6=20 µM) or PF-429242 (7=15 M) for 1 h before being washed with PBS and infected with DENV-2, DENV-3, or DENV-4 at MOI 1.0 for 48 h. Cells were labeled for viral dsRNA with […] then imaged and quantified using the Cellomics ArrayScan™ VTI High Content Screening system.
Viruses. ZIKV: ZIKV strain PRVABC59 (Puerto Rico/2015) (ATCC #VR-1843) was used in these studies, specifically three separate stocks generated in Vero E6 cells with titres of 1.35×10^8 pfu/mL, 1.0×10^7 pfu/mL, and 2.9×10^6 pfu/mL respectively. DENV strains: DENV-2 strain NGC, DENV-3 strain H-87, and DENV-4 strain H-241 were kindly provided by National Microbiology Laboratory, Winnipeg, MB, Canada.
A549 cells were seeded onto Corning tissue culture treated 96 well plates and incubated at 37 degrees Celsius and 5% CO2 for 24 h. CA was diluted in MEM complete media to concentrations of 1 μM, 5 μM, 10 μM, 20 μM, including a 0 μM condition. Diluted CA was added to each well and cells were incubated at 37 degrees Celsius and 5% CO2 for 1 h. After 1 h, cells were washed once with PBS to remove CA and were then infected with DENV-2, -3 or -4 at an MOI of 1. […] Labeled 96 well plates were imaged and quantified using the Cellomics ArrayScan VTI. […]

SARS-CoV-2 = SARS-CoV-2 intracellular viral RNA and nucleocapsid protein in Caco-2 cells; type: cell-based

T1 sequence (P27449 whole entry, looked up): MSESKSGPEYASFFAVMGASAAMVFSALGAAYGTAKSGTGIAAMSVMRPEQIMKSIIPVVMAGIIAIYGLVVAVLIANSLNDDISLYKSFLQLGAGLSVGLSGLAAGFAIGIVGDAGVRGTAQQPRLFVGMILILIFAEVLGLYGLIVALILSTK

Q: For `COc1c2n(c3ccccc13)[C@]1(O)C(=O)N(C)C(=O)[C@]1(O)c1c-2[nH]c2ccc(Cl)cc12` [CA, (11S,15R)-7-chloro-11,15-dihydroxy-23-methoxy-13-methyl-3,13,16-triazahexacyclo[14.7.0.0^2,10.0^4,9.0^11,15.0^17,22]tricosa-1(23),2(10),4(9),5,7,17,19,21-octaene-12,14-dione], which CC50 at 48 h [1] is on record?
A: 54 ± 5 µM

Q: And the ZIKV replication inhibition (ZIKV replicon)?
A: not a ZIKV replication inhibitor

Q: And the “vital staining with acridine orange of intracellular organelles” value (V-ATPase)?
A: inhibited vital staining

Q: And the “reduction in extracellular ZIKV titer” value (ZIKV [2])?
A: greater than 4 log

Q: What about the CC50 at 48 h [3] of the same compound?
A: 42 ± 12 µM

Q: What about the “anti-ZIKV activity in brain organoids (NS1, dsRNA)” value (ZIKV [4]) of the same compound?
A: showed anti-ZIKV activity

Q: What about the “activity against Dengue virus 4 in vitro” value (DENV-4; 1-20 μM, FIG. 8 lower plots) of the same compound?
A: good activity

Q: And the IC50 (DENV-4; Dengue virus, DENV4, DENV-4, intracellular dsRNA (Cellomics))?
A: 3.2 µM

Q: What about the EC50 (SARS-CoV-2; Severe acute respiratory syndrome coronavirus 2, Caco-2, read-out: ED50, intracellular SARS-CoV-2 nucleocapsid protein, Caco-2 cells, 3 hours pre-treatment) of the same compound?
A: 0.005 µM

Q: And the EC50 (SARS-CoV-2; Severe acute respiratory syndrome coronavirus 2, Caco-2, read-out: ED50, intracellular viral RNA, Caco-2 cells, 3 hours pre-treatment)?
A: 0.002 µM

— US12643899B2, “Antiviral agents, uses thereof and methods for their preparation” (The University of British Columbia, priority 2020, dated 2026)
